Here are results for 23 compounds from patent publication US20220251084A1, “PROGRANULIN MODULATORS AND METHODS OF USING THE SAME” (ARKUDA THERAPEUTICS, priority 2019, published 2022).

A value given as a limit tells only on which side of the number the result lay.

Broadly, the EC50 is the concentration needed to bring the measured effect to its halfway point. Lower therefore signals higher potency in that assay.

The first test relates to progranulin (PGRN) secretion, BV-2 cells. Nature of the test: PGRN assay: progranulin induction cellular assay (ELISA of secreted mouse PGRN). Format: cell-based.
Settings: not given
The method, boiled down:
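Progranulin induction measured in BV-2 cells plated at about 80% confluence the day before, given 1 h to attach, then incubated 16 h. Secreted mouse PGRN quantified by ELISA.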
(ELISA stands for enzyme-linked immunosorbent assay.)
The compound `N#Cc1ccc2c(c1)CCN(C(=O)O[C@@H]1CN3CCC1CC3)[C@@H]2c1ccc(F)cc1` [Compound 2034] came in with an EC50 of 6070 nM. In other words, the single-digit micromolar range.

For `O=C(O[C@@H]1CN2CCC1CC2)N1CCc2cccnc2[C@H]1c1ccc(F)cc1` [Compound 2055, (S)-quinuclidin-3-yl 8-(4-fluorophenyl)-5,6-dihydro-1,7-naphthyridine-7(8H)-carboxylate], the midpoint of the response, the EC50, lay at 3300 nM.

The same test, now with this note: Mus musculus, BV-2, PGRN assay, Table C; secreted mouse PGRN in cell culture medium, ELISA.
With `O=C(OCC12CCN(CC1)CC2)N1CCc2ccccc2[C@H]1c1cccc(F)c1F` [Compound 2113], a half-maximal effect (EC50) was put at 596 nM.

For the compound `CNC(=O)c1ccc2c(c1)[C@H](c1ccc(F)cc1)N(C(=O)N[C@@H]1CN3CCC1CC3)CC2` [Compound 2118, (S)-1-(4-fluorophenyl)-N7-methyl-N2-((S)-quinuclidin-3-yl)-3,4-dihydroisoquinoline-2,7(1H)-dicarboxamide], the EC50 is greater than 10000 nM.

In the case of `O=C(CO[C@@H]1CN2CCC1CC2)N1CCc2ccccc2[C@@H]1c1ccc(F)cc1` [Compound 2009], the EC50 amounted to 811 nM.

For the compound `O=C(OCCC12CCN(CC1)CC2)N1CCc2ccccc2[C@@H]1c1ccc(F)cc1` [Compound 2130, 2-(quinuclidin-4-yl)ethyl (S)-1-(4-fluorophenyl)-3,4-dihydroisoquinoline-2(1H)-carboxylate], the EC50 was greater than 3160 nM.

Turning to `O=C(OCC12CCN(CC1)CC2)N1CCc2ccccc2[C@@H]1c1ccc(OCc2ncccn2)cc1` [Compound 2155], the EC50 is greater than 10000 nM.

Compound `CN1CCC2(CCCN2C(=O)N2CCc3ccccc3[C@@H]2c2ccc(F)cc2)CC1` [Compound 2120, (S)-(1-(4-fluorophenyl)-3,4-dihydroisoquinolin-2(1H)-yl)(8-methyl-1,8-diazaspiro[4.5]decan-1-yl)methanone] displayed an EC50 of 2680 nM. That is a single-digit micromolar value.

With `C#CCOc1ccc2c(c1)CCN(C(=O)OCC13CCN(CC1)CC3)[C@H]2c1ccc(F)cc1` [Compound 2078], it took 5350 nM to reach a half-maximal effect (EC50).

With `CN1CCO[C@H](CC(=O)N2CCc3ccccc3[C@@H]2c2ccc(F)cc2)C1` [Compound 2003], a half-maximal effect (EC50) was put at 1130 nM.

Regarding `CN1CCS(=O)(=O)[C@H](CC(=O)N2CCc3ccccc3[C@@H]2c2ccc(F)cc2)C1` [Compound 2042], the EC50 amounted to 3200 nM.

The compound `CN1CCS(=O)(=O)[C@@H](CC(=O)N2CCc3ccccc3[C@@H]2c2ccc(F)cc2)C1` (single isomer, unassigned) [Compound 2043] yielded an EC50 greater than 10000 nM.

`N#Cc1ccc2c(c1)[C@@H](c1ccc(F)cc1)N(C(=O)N[C@@H]1CN3CCC1CC3)CC2` [Compound 2039, 7-cyano-1-(4-fluorophenyl)-N—((S)-quinuclidin-3-yl)-3,4-dihydroisoquinoline-2(1H)-carboxamide] returned an EC50 greater than 10000 nM.

In turn, `CNC(=O)c1ccc2c(c1)CCN(C(=O)OCC13CCN(CC1)CC3)[C@@H]2c1ccc(F)cc1` [Compound 2081] came in with an EC50 greater than 10000 nM.

Staying with this test, now noted: Mus musculus, BV-2, PGRN assay, Table D; secreted mouse PGRN in cell culture medium, ELISA.
In turn, `CNC[C@H]1CN(C(=O)N2CCc3ccccc3[C@@H]2c2ccc(F)cc2)CCO1` [Compound 2307] returned an EC50 of 483 nM. This lies in the sub-micromolar range.

For `CN(C)C1CCN(C(=O)N2CCc3ccccc3[C@@H]2c2ccc(F)cc2)C1` (stereo in doubt) [Compound 2311, ((R)-3-(dimethylamino)pyrrolidin-1-yl)((S)-1-(4-fluorophenyl)-3,4-dihydroisoquinolin-2(1H)-yl)methanone], a half-maximal effect (EC50) was put at 1320 nM.

`N[C@H]1CCN(C(=O)N2CCc3ccccc3[C@H]2c2ccc(F)cc2)C1` (single isomer, unassigned) [Compound 2285]: the EC50 was determined as 3440 nM.

Regarding `O=C(O[C@@H]1CNC[C@@H]1F)N1CCc2ccccc2[C@@H]1c1ccc(F)cc1` [Compound 2363], the EC50 is 104 nM. Compared with the last compound, the EC50 is about 33-fold lower.

In turn, `O=C(O[C@H]1CNC[C@@H]1F)N1CCc2ccccc2[C@@H]1c1ccc(F)cc1` [Compound 2361, (3S,4S)-4-fluoropyrrolidin-3-yl (S)-1-(4-fluorophenyl)-3,4-dihydroisoquinoline-2(1H)-carboxylate] returned an EC50 of 365 nM.

On to `O=C(NC[C@@H]1CCCNC1)N1CCc2ccccc2[C@@H]1c1ccc(F)cc1` [Compound 2221], for which the EC50 was determined as 7830 nM.

In turn, `CN1C[C@H](NC(=O)N2CCc3ccccc3[C@@H]2c2ccc(F)cc2)C2(CC2)C1` [Compound 2315] returned an EC50 of 742 nM.

Consider `O=C(N[C@@H]1CNC[C@H]1F)N1CCc2ccccc2[C@@H]1c1ccc(F)cc1` [Compound 2360], for which the response was half-maximal at 148 nM (EC50).

The same test, now with this note: PGRN assay, Table C; secreted mouse PGRN in cell culture medium, ELISA.
Compound `O=C(OC1CCNCC1)N1CCc2ccccc2[C@@H]1c1ccc(F)cc1` [Compound 2176] displayed an EC50 of 290 nM.
